Read-outs that look alike come from different tables or passages of the source.
Tests used:
AR / CBP ternary complex = AR / CBP ternary complex (Homo sapiens, UniProt P10275+Q92793); assay: Ternary complex formation assay (sandwich ELISA, AR capture, CBP antibody detection) in VCaP cell lysates; type: cell-based
Experimental: Black MaxiSorp plates: coat with 50 μL of mouse 1/50 diluted AR antibody (Monoclonal Antibody (AR 441 from Thermo Fisher); diluted in phosphate buffered saline (PBS). Spin the liquid to the bottom of the wells, if necessary. Incubate overnight at 4° C. Next day, wash 3 times with 200 μL of TBST. Block with 200 μL of blocking buffer (5% BSA in TBST) at room temperature for 2 hours (BSA: A4503 or A2153 from Sigma). Wash plates 3 times with TBST. Plates are ready for lysates Preparation of dimerizer treated lysates
Culture cells in 96 wells at 50K VCaP cells/well for at least 3 days. Plate in 5% Omega charcoal stripped FBS in total volume of 200 uL. Treat with bifunctional for 1.5 hours by adding 1 μL of 200× stock in DMSO. Aspirate media/compound. Add and pipet-to-mix 70 μL of 1× AlphaLisa Lysis Buffer to each well (Perkin Elmer, AlphaLISA SureFire Ultra, diluted in water). Pipet up and down when adding lysis buffer to disrupt cells. Let lysis proceed for 30 min at 4° C.
Incubate for 1 hour at room temperature. Flick out the lysates. Wash 3 times with TBST. Add 75 μL of rabbit CBP or p300 antibody to each well (diluted 1:5000 in blocking buffer (5% BSA in TBST). CBP antibody: (D6C5) Rabbit mAb #7389; p300 antibody: (D8Z4E) Rabbit mAb #86377. Incubate overnight at 4° C. Wash 3 times with 300 uL TBST, each time on shaker for 5-10 min. Prepare goat anti-rabbit antibody conjugated to HRP (1/100K dilution in blocking buffer) Invitrogen Catalog number: 32260. Add 75 μL of HRP-conjugated goat anti-rabbit antibody. Incubate at room temperature for 1 hour. Flick out the HRP-antibody mixture. Wash 7-8 times with TBST, each time on shaker for 10 min. Later washes try to overflow the wells so that no residual HRP remains bound to the sides of the well. Prepare and add 75 uL/well of QuantaRed Enhance Chemifluorescent HRP Substrate solution. Immediately read fluorescence on BMG ClarioStar (ex: 570/em 585), and repeat the read in 5 minutes and 15 minutes.

VCaP cells = assay: VCaP growth inhibition assay (CTG); type: cell-based; settings: 30 pM R1881, 9 days
Experimental: VCaP cells (ATCC Cat #CRL-2876) are plated at 1×10^4 cells per well of a white plastic 96-well cluster plate (Thermo Scientific Nunc Cat #165306) in 100 uL phenol red-free DMEM (Gibco Cat #21063-029) media with 5% CSS (Omega Scientific Cat #FB-04). Cluster plates are returned to the incubator (37*C/5% CO2) for 72 hours prior to treatment. Just prior to treatment, 100 uL of phenol red-free DMEM/5% CSS and 60 pM R1881 (Sigma Cat #R0908-10 mg) was added to each well of the cluster plates (Final R1881 concentration=30 pM). Compounds (200X) were added to each well in a volume of 1 uL, with serial dilutions (1:5) from 20 uM to 2 pM (final concentrations in well are 100 nM to 10 fM). Cluster plates are returned to the incubator for 9 days.
After the 9-day treatment period, media was removed from the cluster plates by inversion and 100 uL room temperature CTG reagent (Promega Cat #G7573) is added to each well. The cluster plates are placed on a shaker and incubated at room temperature for 20 minutes. Following this shaking/incubation, cluster plates are read on a luminometer (BMG ClarioStar). IC50 values are obtained by graphing the RLU data vs. compound concentration with nonlinear regression 4-parameter logistic curves (GraphPad Prism).

[1] = treated 1.5 hours, rabbit CBP or p300 antibody detection, average, read-out: Average Ternary Complex

AR / CBP ternary complex, sequence (P10275 whole entry): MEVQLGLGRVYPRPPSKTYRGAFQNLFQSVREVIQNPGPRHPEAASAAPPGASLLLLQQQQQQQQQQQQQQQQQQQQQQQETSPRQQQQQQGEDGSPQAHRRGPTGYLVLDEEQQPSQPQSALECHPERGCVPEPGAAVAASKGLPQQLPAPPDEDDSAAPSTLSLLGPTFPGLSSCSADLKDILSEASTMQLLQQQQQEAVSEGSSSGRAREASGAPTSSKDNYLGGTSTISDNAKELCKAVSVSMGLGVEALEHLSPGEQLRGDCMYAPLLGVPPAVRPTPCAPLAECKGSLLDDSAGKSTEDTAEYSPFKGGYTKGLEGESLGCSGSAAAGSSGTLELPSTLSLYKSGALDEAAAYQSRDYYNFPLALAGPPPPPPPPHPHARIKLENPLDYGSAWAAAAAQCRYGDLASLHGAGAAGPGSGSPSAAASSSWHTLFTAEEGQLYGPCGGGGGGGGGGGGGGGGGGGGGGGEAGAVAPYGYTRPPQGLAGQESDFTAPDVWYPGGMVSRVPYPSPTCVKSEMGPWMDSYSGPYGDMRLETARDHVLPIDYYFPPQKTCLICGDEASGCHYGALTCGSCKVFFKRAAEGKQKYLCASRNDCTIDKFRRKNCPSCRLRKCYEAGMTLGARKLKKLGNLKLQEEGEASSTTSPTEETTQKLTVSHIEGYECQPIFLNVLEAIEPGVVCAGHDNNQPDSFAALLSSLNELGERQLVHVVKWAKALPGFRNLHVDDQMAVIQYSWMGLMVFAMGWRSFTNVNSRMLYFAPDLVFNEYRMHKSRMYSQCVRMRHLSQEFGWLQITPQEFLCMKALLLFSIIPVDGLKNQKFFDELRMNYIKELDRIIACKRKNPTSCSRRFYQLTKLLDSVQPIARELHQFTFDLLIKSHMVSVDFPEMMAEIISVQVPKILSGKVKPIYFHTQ
AR / CBP ternary complex, sequence (Q92793 2-2442): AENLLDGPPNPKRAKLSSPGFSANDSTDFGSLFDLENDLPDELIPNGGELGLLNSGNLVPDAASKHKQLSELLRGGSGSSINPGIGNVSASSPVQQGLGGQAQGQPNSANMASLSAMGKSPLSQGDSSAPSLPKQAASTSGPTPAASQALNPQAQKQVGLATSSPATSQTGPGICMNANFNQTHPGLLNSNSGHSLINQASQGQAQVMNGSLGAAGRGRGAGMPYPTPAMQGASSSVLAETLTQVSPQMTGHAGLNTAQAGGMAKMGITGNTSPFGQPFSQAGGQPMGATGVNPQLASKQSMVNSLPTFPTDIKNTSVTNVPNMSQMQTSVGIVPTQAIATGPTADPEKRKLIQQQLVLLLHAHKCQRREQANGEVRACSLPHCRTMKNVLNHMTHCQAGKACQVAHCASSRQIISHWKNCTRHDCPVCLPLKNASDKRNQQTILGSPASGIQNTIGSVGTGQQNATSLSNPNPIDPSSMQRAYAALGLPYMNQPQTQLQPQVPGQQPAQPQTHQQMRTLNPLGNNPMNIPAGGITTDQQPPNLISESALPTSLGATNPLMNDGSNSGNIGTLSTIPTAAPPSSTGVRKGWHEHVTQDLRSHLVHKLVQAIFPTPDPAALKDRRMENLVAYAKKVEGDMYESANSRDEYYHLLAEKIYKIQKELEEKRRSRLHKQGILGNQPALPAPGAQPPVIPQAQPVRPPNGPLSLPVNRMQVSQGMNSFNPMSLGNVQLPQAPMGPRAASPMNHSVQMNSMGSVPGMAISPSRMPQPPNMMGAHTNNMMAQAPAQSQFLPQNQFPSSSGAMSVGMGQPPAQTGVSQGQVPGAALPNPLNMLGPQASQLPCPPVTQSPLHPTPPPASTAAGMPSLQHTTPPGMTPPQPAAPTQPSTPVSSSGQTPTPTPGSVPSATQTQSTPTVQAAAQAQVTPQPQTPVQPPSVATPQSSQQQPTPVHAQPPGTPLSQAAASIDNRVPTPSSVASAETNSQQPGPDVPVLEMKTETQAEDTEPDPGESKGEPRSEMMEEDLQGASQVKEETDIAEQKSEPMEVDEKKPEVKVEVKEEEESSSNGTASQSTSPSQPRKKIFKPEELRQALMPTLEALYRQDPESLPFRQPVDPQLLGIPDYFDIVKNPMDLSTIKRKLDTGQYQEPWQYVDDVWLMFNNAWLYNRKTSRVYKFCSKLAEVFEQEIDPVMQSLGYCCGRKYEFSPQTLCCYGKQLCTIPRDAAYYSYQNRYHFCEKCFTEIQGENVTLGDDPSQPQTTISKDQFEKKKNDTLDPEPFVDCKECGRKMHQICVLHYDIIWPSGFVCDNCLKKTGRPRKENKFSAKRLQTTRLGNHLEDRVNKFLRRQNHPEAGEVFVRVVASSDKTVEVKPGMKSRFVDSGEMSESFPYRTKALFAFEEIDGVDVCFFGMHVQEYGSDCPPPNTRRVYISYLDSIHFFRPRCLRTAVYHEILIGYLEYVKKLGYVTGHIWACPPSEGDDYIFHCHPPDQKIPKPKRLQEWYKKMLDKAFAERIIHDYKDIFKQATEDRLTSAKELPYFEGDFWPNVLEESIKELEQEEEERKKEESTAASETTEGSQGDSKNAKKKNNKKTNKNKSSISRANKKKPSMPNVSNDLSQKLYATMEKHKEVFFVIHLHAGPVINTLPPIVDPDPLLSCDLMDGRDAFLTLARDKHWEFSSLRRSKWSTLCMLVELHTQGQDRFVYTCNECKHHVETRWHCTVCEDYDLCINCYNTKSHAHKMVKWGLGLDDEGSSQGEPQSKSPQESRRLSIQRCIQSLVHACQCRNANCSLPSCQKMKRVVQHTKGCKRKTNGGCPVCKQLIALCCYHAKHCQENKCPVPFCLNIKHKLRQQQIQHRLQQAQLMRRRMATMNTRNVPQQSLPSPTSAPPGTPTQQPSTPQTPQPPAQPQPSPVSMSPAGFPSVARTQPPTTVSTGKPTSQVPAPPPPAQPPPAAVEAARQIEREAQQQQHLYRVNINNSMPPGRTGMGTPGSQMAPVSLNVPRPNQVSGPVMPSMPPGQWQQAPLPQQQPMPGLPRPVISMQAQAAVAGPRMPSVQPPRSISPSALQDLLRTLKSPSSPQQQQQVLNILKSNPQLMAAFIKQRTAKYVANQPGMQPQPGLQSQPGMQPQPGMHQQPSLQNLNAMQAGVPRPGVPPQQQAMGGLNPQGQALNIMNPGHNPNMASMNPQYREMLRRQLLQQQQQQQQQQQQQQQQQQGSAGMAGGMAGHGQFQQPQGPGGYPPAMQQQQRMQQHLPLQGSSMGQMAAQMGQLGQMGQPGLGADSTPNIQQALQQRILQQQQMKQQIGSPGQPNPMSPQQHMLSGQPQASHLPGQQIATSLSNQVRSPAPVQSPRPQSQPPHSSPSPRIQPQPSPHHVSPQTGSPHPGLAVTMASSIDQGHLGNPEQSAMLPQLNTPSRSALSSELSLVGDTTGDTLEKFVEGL

Compound | EC50 (AR / CBP ternary complex; [1]) [nM] | IC50 (VCaP cells) [nM] | IC50 (VCaP cells; Homo sapiens, 216 h) [nM] | EC50 (AR / CBP ternary complex; read-out: Average Ternary Complex, treated 1.5 hours, rabbit CBP or p300 antibody detection) [nM]
CC(=O)N1CCc2c(c(N3CCCc4cc(-c5cnn(C)c5)c(C(F)F)cc43)nn2C2CCN(C[C@H]3CCN(c4ccc(C(=O)N[C@H]5CC[C@H](Oc6ccc(C#N)c(Cl)c6)CC5)nn4)C[C@H]3C)CC2)C1 (stereo in doubt) [Compound 101, 6-[4-[[4-[5-acetyl-3-[7-(difluoromethyl)-6-(1-methylpyrazol-4-yl)-3,4-dihydro-2H-quinolin-1-yl]-6,7-dihydro-4H-pyrazolo[4,3-c]pyridin-1-yl]-1-piperidyl]methyl]-3-methyl-1-piperidyl]-N-[4-(3-chloro-4-cyano-phenoxy)cyclohexyl]pyridazine-3-carboxamide] | < 1 | ≤ 0.1 |  | 
CC(=O)N1CCc2c(c(N3CCCc4cc(C#N)ccc43)nn2C2CCN(C[C@H]3CCN(c4ccc(C(=O)N[C@H]5CC[C@H](Oc6ccc(C#N)c(Cl)c6)CC5)nn4)C[C@@H]3C)CC2)C1 (stereo in doubt) [Compound 105, 6-[4-[[4-[5-acetyl-3-(6-cyano-3,4-dihydro-2H-quinolin-1-yl)-6,7-dihydro-4H-pyrazolo[4,3-c]pyridin-1-yl]-1-piperidyl]methyl]-3-methyl-1-piperidyl]-N-[4-(3-chloro-4-cyano-phenoxy)cyclohexyl]pyridazine-3-carboxamide] | < 1 |  | 0.1 to 1 | 
CC(=O)N1CCc2c(c(N3CCCc4cc(-c5cnn(C)c5)c(C(F)F)cc43)nn2C2CCN(C(=O)COC3CCN(c4ccc(C(=O)N[C@H]5CC[C@H](N(C)c6ccc(C#N)c(Cl)c6)CC5)cc4)CC3)CC2)C1 [Compound 12, 4-[4-[2-[4-[5-acetyl-3-[7-(difluoromethyl)-6-(1-methylpyrazol-4-yl)-3,4-dihydro-2H-quinolin-1-yl]-6,7-dihydro-4H-pyrazolo[4,3-c]pyridin-1-yl]-1-piperidyl]-2-oxo-ethoxy]-1-piperidyl]-N-[4-(3-chloro-4-cyano-N-methyl-anilino)cyclohexyl]benzamide] |  |  | ≤ 0.1 | < 1
CC(=O)N1CCc2c(c(N3CCCc4cc(-c5cnn(C)c5)c(C(F)F)cc43)nn2[C@H]2CC[C@H](N(C)C3CCN(c4ccc(C(=O)N[C@H]5CC[C@H](Oc6ccc(C#N)c(Cl)c6)CC5)nn4)CC3)CC2)C1 [Compound 187, 6-[4-[[4-[5-acetyl-3-[7-(difluoromethyl)-6-(1-methylpyrazol-4-yl)-3,4-dihydro-2H-quinolin-1-yl]-6,7-dihydro-4H-pyrazolo[4,3-c]pyridin-1-yl]cyclohexyl]-methyl-amino]-1-piperidyl]-N-[4-(3-chloro-4-cyano-phenoxy)cyclohexyl]pyridazine-3-carboxamide] |  |  | ≤ 0.1 | 
CC(=O)N1CCc2c(c(N3CCCc4cc(-c5cnn(C)c5)c(C(F)F)cc43)nn2[C@H]2CC[C@@H](N(C)C3CCN(c4ccc(C(=O)N[C@H]5CC[C@H](Oc6ccc(C#N)c(Cl)c6)CC5)nn4)CC3)CC2)C1 [Compound 189, 6-[4-[[4-[5-acetyl-3-[7-(difluoromethyl)-6-(1-methylpyrazol-4-yl)-3,4-dihydro-2H-quinolin-1-yl]-6,7-dihydro-4H-pyrazolo[4,3-c]pyridin-1-yl]cyclohexyl]-methyl-amino]-1-piperidyl]-N-[4-(3-chloro-4-cyano-phenoxy)cyclohexyl]pyridazine-3-carboxamide] |  |  | ≤ 0.1 | 
CC(=O)N1CCc2c(c(N3CCCc4cc(-c5ccc(OC6CC7(CCN(c8ccc(C(=O)N[C@H]9CC[C@H](Oc%10ccc(C#N)c(Cl)c%10)CC9)nn8)CC7)C6)nc5)c(C(F)F)cc43)nn2C2CCOCC2)C1 [Compound 202, 6-[2-[[5-[1-(5-acetyl-1-tetrahydropyran-4-yl-6,7-dihydro-4H-pyrazolo[4,3-c]pyridin-3-yl)-7-(difluoromethyl)-3,4-dihydro-2H-quinolin-6-yl]-2-pyridyl]oxy]-7-azaspiro[3.5]nonan-7-yl]-N-[4-(3-chloro-4-cyano-phenoxy)cyclohexyl]pyridazine-3-carboxamide] |  |  | 0.1 to 1 | 

Further lines, with some results ahead:

EC50 (AR / CBP ternary complex; [1]) [nM] | IC50 (VCaP cells) [nM] | IC50 (VCaP cells; Homo sapiens, 216 h) [nM] | Compound | EC50 (AR / CBP ternary complex; read-out: Average Ternary Complex, treated 1.5 hours, rabbit CBP or p300 antibody detection) [nM]
< 1 |  | ≤ 0.1 | CO[C@H]1CN(c2ccc(C(=O)N[C@H]3CC[C@H](Oc4ccc(C#N)c(Cl)c4)CC3)nn2)CC[C@@H]1CN1CCC(n2nc(N3CCCc4cc(-c5cnn(C)c5)c(C(F)F)cc43)c3c2CCN(C(C)=O)C3)CC1 (stereo in doubt) [Compound 220, 6-[4-[[4-[5-acetyl-3-[7-(difluoromethyl)-6-(1-methylpyrazol-4-yl)-3,4-dihydro-2H-quinolin-1-yl]-6,7-dihydro-4H-pyrazolo[4,3-c]pyridin-1-yl]-1-piperidyl]methyl]-3-methoxy-1-piperidyl]-N-[4-(3-chloro-4-cyano-phenoxy)cyclohexyl]pyridazine-3-carboxamide] | 
< 1 |  | ≤ 0.1 | CC(=O)N1CCc2c(c(N3CCCc4cc(-c5cnn(C)c5)c(C(F)F)cc43)nn2C2CCN(C(=O)C3CCN(c4ccc(C(=O)N[C@H]5CC[C@H](Oc6ccc(C#N)c(Cl)c6)CC5)nn4)CC3)CC2)C1 [Compound 2] | 
< 1 |  | ≤ 0.1 | CC(=O)N1CCc2c(c(N3CCCc4cc(-c5cnn(C)c5)c(C)cc43)nn2C2CCN(C(=O)C3CCN(c4ccc(C(=O)N[C@H]5CC[C@H](Oc6ccc(C#N)c(Cl)c6)CC5)nn4)CC3)CC2)C1 [Compound 3, 6-[4-[4-[5-acetyl-3-[7-methyl-6-(1-methylpyrazol-4-yl)-3,4-dihydro-2H-quinolin-1-yl]-6,7-dihydro-4H-pyrazolo[4,3-c]pyridin-1-yl]piperidine-1-carbonyl]-1-piperidyl]-N-[4-(3-chloro-4-cyano-phenoxy)cyclohexyl]pyridazine-3-carboxamide] | 
< 1 |  | ≤ 0.1 | CC(=O)N1CCc2c(c(-c3cccc4cc(-c5cnn(C)c5)ncc34)nn2C2CN(CC3CCN(c4ccc(C(=O)N[C@H]5CC[C@H](Oc6ccc(C#N)c(Cl)c6)CC5)nn4)CC3)C2)C1 [Compound 4, 6-[4-[[3-[5-acetyl-3-[3-(1-methylpyrazol-4-yl)-8-isoquinolyl]-6,7-dihydro-4H-pyrazolo[4,3-c]pyridin-1-yl]azetidin-1-yl]methyl]-1-piperidyl]-N-[4-(3-chloro-4-cyano-phenoxy)cyclohexyl]pyridazine-3-carboxamide] | 
< 1 |  | ≤ 0.1 | CC(=O)N1CCc2c(c(-c3cccc4cc(-c5cnn(C)c5)ncc34)nn2C2CCN(CCC3CCN(c4ccc(C(=O)N[C@H]5CC[C@H](Oc6ccc(C#N)c(Cl)c6)CC5)nn4)CC3)CC2)C1 [Compound 5, 6-[4-[2-[4-[5-acetyl-3-[3-(1-methylpyrazol-4-yl)-8-isoquinolyl]-6,7-dihydro-4H-pyrazolo[4,3-c]pyridin-1-yl]-1-piperidyl]ethyl]-1-piperidyl]-N-[4-(3-chloro-4-cyano-phenoxy)cyclohexyl]pyridazine-3-carboxamide] | 
< 1 |  | ≤ 0.1 | CC(=O)N1CCc2c(c(-c3cccc4cc(-c5cnn(CCC6CCN(c7ccc(C(=O)N[C@H]8CC[C@H](Oc9ccc(C#N)c(Cl)c9)CC8)nn7)CC6)c5)ncc34)nn2C)C1 [Compound 8, 6-[4-[2-[4-[8-(5-acetyl-1-methyl-6,7-dihydro-4H-pyrazolo[4,3-c]pyridin-3-yl)-3-isoquinolyl]pyrazol-1-yl]ethyl]-1-piperidyl]-N-[4-(3-chloro-4-cyano-phenoxy)cyclohexyl]pyridazine-3-carboxamide] | 
